{"source": "patent US12503455B2", "about": "“Nucleic acid-binding photoprobes and uses thereof” (Arrakis Therapeutics, Inc., priority 2017, dated 2025)", "key": {"Aptamer 21 [1]": {"test_system": "Aptamer 21", "experiment": "Competition between Aptamer 21 photoprobes and RNA-binding ligands (RT pausing)", "method": "Aptamer 21 was either incubated with probe alone (ARK-581) or probe plus a 10-fold excess of RNA-binding ligand.\nBoth ARK-852 and ARK-139 inhibit the photocrosslinking of probes to Aptamer 21.\n(§1) Folded RNA (1 μM) was incubated with the photoaffinity probe (10 μM) in total 25 μL of buffer (20 mM TrisHCl pH 8, 100 mM KCl, 3 mM MgCl2) with 2.5% DMSO for 30 min at 37° C. to allow binding to come to equilibrium. The sample was then irradiated with long wave UV light (˜365 nm) for 30 min in a UV crosslinker (Fisher Scientific).\n(§2) A 3.75 μL aliquot of 10 μM reverse transcription primer was added to the cross-linked RNA sample, which was then incubated for 5 min at 65° C. and then cooled on ice. The sample was then diluted to a final volume of 60 μL and final buffer concentration of 1× Protoscript-II buffer (New England Biolabs), 0.5 mM dNTPs, 10 mM DTT, 0.4 U/μL RNase Inhibitor (New England Biolabs), and 10 U/μL Protoscript-II (New England Biolabs). The reaction was incubated at 45° C. for 2 h, 65° C. for 20 min, and then 4° C.\n(§3) The RNA was hydrolyzed by the addition of 4.8 μL of 2.5 M NaOH and heating at 95° C. for 5 min. The reaction was quenched by the addition of 0.9 μL of acetic acid. The cDNA was precipitated by the addition of 6.6 μL of 3 M sodium acetate pH 5 and 181 μL ethanol, cooling to −80° C. for 1 h, and then centrifuging at 20,500×g at 4° C. for 30 min. The cDNA pellet was washed twice with 500 μL of 70% ethanol and then air dried for 5 min.\n(§4) The cDNA pellet was resuspended in 12 μL of 1×TBE-urea sample loading buffer (Bio-Rad) and heated to 95° C. for 5 min. The sample was then run on a pre-cast 8.6×6.7 cm TBE-urea 10% PAGE gel (Bio-Rad) at 120 V until the lower bromophenol blue dye reached the bottom of the gel. The gel was stained with 1×SYBR-gold (Invitrogen) in 1×TBE buffer at room temperature for 20 min covered from light. The gel fluorescence was imaged on an Azure c600 instrument."}, "Aptamer 21 [2]": {"test_system": "Aptamer 21", "experiment": "Surface plasmon resonance (SPR) binding to Aptamer 21", "conditions": "for binding to Aptamer 21 by SPR, separated enantiomers: 10 uM", "description": "Surface plasmon resonance (SPR) may be used to screen ligands and hook and click constructs for binding to a target RNA of interest. SPR is especially useful for monitoring biomolecular interactions in real time. Typically, target species and unrelated control are immobilized to a sensor chip, then analytes (compounds/fragments) are flowed over the surface. Binding of the compound to target species results in increase of SPR signal (association phase). Washing away bound compound with buffer results in a decrease of SPR signal (dissociation phase). Fitting of sensorgrams recorded at different compound concentrations is performed to an appropriate interaction model. The method allows extraction of kinetic parameters (ka, kd→KD). Requirements/limitations include that the ka/kd values be in reasonable ranges; and the target size must not be too large (<100 kDa). It is an excellent method to screen fragments and profile or validate hits. BC4000 may be used for primary screening (up to 4,000 data pts/week). Biacore T200 is suitable for hit profiling and validation.\nIn the PEARL-seq context, SPR allows monitoring binding of “hooks” to DNA/RNA aptamers. The target species is immobilized to sensor chip, analytes (i.e. hooks) are flowed over surface (association phase), DNA/RNA aptamer is flowed over surface (plateau phase), competitor compound is washed over surface (dissociation phase), thus yielding binding data.\nExperiments were performed on a MASS-2 (Sierra Sensors) at 25° C. A high capacity amine chip was equilibrated with PBS. The chip was conditioned with alternating injections of 10 mM HCl and 10 mM NaOH in 1 M NaCl. The carboxymethylated dextran of the surface of the amine chip was activated for 7 minutes at a flow rate of 10 μL/min using a 1:1 volume ratio of 0.4 M 1-ethyl-3-(3-dimethylaminopropyl) carbodiimide (Sierra) and 0.1 M N-hydroxysuccinimide (Sierra). Neutravidin (70 μg/mL, Thermofisher) was injected over the activated surface for 10 minutes at a flow rate of 10 μl/min. Excess activated groups were blocked by an injection of 1 M ethanolamine, pH 8.5 (Sierra) for 7 minutes at a flow rate of 10 μl/min. A final injection of 10 mM NaOH in 1 M NaCl for 7 minutes at 10 μl/min was used to remove any unbound material to the chip. The immobilization reaction typically yielded approximately 12,000 resonance units (RU) of neutravidin. At least one spot in a channel was not injected with RNA and was used as a background control. Unrelated RNA was also used as a background control.\nA 1 μM sample of biotin-aptamer 21 was prepared in RNAse free water, heated to 95° C. for 3 minutes, cooled on ice for 4 minutes, diluted with an equal volume 2× folding buffer (40 mM Tris-HCl, pH 8.0, 6 mM MgCl2, 200 mM KCl), and incubated at 37° C. for 30 minutes. The final concentration of RNA was 0.5 μM.\nThe MASS-2 was primed 2 times with 20 mM Tris-HCl, pH 8.0, 3 mM MgCl2, 100 mM KCl (Capture Buffer). RNA was injected over the neutravidin surface for 7 minutes at a flow rate of 10 μl/min. Capture levels typically reached approximately 3500-4500 of resonance units of aptamer 21.\nCompounds were diluted 2-fold in 100% DMSO at a starting concentration of 500 μM.\nThe MASS-2 was primed 2 times with 20 mM Tris-HCl, pH 8.0, 3 mM MgCl2, 100 mM KCl, 1% DMSO (running buffer). Prior to testing compounds 3 injections of running buffer were used to equilibrate the sensor surface. […]"}, "Aptamer 21 [3]": {"test_system": "Aptamer 21", "experiment": "Reverse transcriptase pausing (drop-off) gel assay of photo-crosslinking to Aptamer 21", "type": "binding", "conditions": "FIG. 52", "method": "A solution of RNA at 2 to 5 μM in nuclease-free water was heated to 95° C. for 3 min and then cooled on ice for 2 min. This solution was diluted with ½ volume of 3×RNA folding buffer (60 mM TrisHCl pH 8, 300 mM KCl, 9 mM MgCl2) and incubated at 37° C. for 20 min. Folding was carried out immediately before use of the RNA in each experiment. In cases where a mixture of RNA molecules was used in vitro the RNAs were folded separately and then combined prior to the probing experiment.\nas §1, §2, §3, §4"}, "Aptamer 21 [4]": {"test_system": "Aptamer 21", "experiment": "LC-MS analysis of cross-linked RNA", "type": "binding", "method": "Folded RNA (1.33 μM) was incubated with or without the photoaffinity probe (20 μM) in total 100 μL of buffer (20 mM TrisHCl pH 8, 100 mM KCl, 3 mM MgCl2) with 2% DMSO for 30 min at 37° C. to allow binding to come to equilibrium. The sample was then irradiated with long wave UV light (˜365 nm) for 30 min in a UV crosslinker (Fisher Scientific).\nThe RNA was then precipitated by adding 10 μL of 3 M sodium acetate pH 5 and 275 μL ethanol, cooling to −80° C. for 1 h, and then centrifuging at 20,500×g at 4° C. for 30 min. The RNA pellet was washed with 500 μL of 70% ethanol, air dried for 5 min, and then resuspended in 120 μL of water.\n50 μL of RNA sample was injected onto Clarity 2.6 μm Oligo X-T column (50*2.1 mm, 60° C.), and the gradient and flowrate were as follows: 95% A/5% B to 75% A/25% B over 5 min, flowrate: 400 μL/min; 75% A/25% B to 30% A/70% B over 1 min, flowrate: 400 μL/min; 100% D over 1 min, flowrate: 500 μL/min; 95% A/5% B over 2 min, flowrate: 500 μL/min (A: 1% HFIPA (hexafluoroisopropyl alcohol), 0.1% DIEA (diisopropylethylamine), 1 μM EDTA (ethylenediamine tetraacetic acid) in H2O; B: 0.075% HFIPA, 0.0375% DIEA, 1 μM EDTA in 65/35 MeCN/H2O; D: 40/40/20% MeOH/MeCN/H2O); The LCMS instrument was a Thermo Finnigan LTQ, and ProMass deconvolution software coupled with Xcaliber were used for all data processing."}}, "data": [{"smiles": "Cc1ccc(C(=O)N2Cc3ccccc3C[C@H]2C(N)=O)cc1NCc1c(F)ccc(O)c1F", "note": "[ARK-852]", "values": [{"measurement": "inhibition of photocrosslinking of ARK-581 to Aptamer 21", "setting": "Aptamer 21 [1]; 10-fold excess of RNA-binding ligand over probe", "result": "efficiently inhibited"}, {"measurement": "inhibition of photocrosslinking of probes to Aptamer 21 (RT pausing competition assay)", "setting": "Aptamer 21 [1]; FIG. 65", "result": "inhibit"}, {"measurement": "binding to Aptamer 21 by SPR", "setting": "Aptamer 21 [2]", "result": "SPR-active"}]}, {"smiles": "COC(=O)C1=C(COCc2cn(CCOCCOCCO)nn2)NC(c2ccncc2)=N[C@@H]1c1ccc(F)cc1Cl", "note": "[ARK-702, (S)-methyl 4-(2-chloro-4-fluorophenyl)-6-(((1-(2-(2-(2-hydroxyethoxy)ethoxy)ethyl)-1H-1,2,3-triazol-4-yl)methoxy)methyl)-2-(pyridin-4-yl)-1,4-dihydropyrimidine-5-carboxylate]", "values": [{"measurement": "binding to Aptamer 21 by SPR, separated enantiomers", "setting": "Aptamer 21 [2]", "result": "did not bind"}]}, {"smiles": "Cc1ncccc1C(=O)n1ccnc1", "note": "[NAI, 2-methylnicotinic acid imidazolide, reference compound]", "values": [{"measurement": "shortened sequences produced in PEARL-seq reverse transcriptase pausing gel assay", "setting": "Aptamer 21 [3]", "result": "numerous shortened sequences"}]}, {"smiles": "COC(=O)C1=C(COCc2cn(CCOCCOCCNC(=O)c3ccc(N=[N+]=[N-])cc3)nn2)NC(c2ccncc2)=NC1c1ccc(F)cc1Cl", "note": "(stereo not shown) [ARK-581]", "values": [{"measurement": "covalent modification of the RNA by LC-MS", "setting": "Aptamer 21 [4]", "result": 10, "unit": "%"}]}, {"smiles": "COC(=O)C1=C(COCc2cn(CCOCCOCCO)nn2)NC(c2ccncc2)=N[C@H]1c1ccc(F)cc1Cl", "note": "[ARK-701, (R)-methyl 4-(2-chloro-4-fluorophenyl)-6-(((1-(2-(2-(2-hydroxyethoxy)ethoxy)ethyl)-1H-1,2,3-triazol-4-yl)methoxy)methyl)-2-(pyridin-4-yl)-1,4-dihydropyrimidine-5-carboxylate]", "values": [{"measurement": "binding to Aptamer 21 by SPR, separated enantiomers", "setting": "Aptamer 21 [2]", "result": "did bind"}]}]}
